Measured values published in ChEMBL document CHEMBL1914321, “Molecular wipes: application to epidemic keratoconjuctivitis” (J Med Chem, 2011).
Blank lines part the entries; values can stand above or below the compound they belong to. Activity calls are given as the source filed them. No cut-off for these calls is given here.

How the values were obtained:
Type in all cases: functional, organism-based
[1] = system: Human adenovirus D37; assay: Inhibition of 35S-labeled Human adenovirus 37 1477 virion binding to human HCE cells at 1:9 compound to PDA ratio formulation prepared by extrusion method after 1 hr by scintillation counting; details: Human mastadenovirus D, 1477, HCE
[2] = system: Human adenovirus D37; assay: Inhibition of 35S-labeled Human adenovirus 37 1477 virion binding to human HCE cells at 1:9 compound to PDA ratio formulation prepared by probe sonication method after 1 hr by scintillation counting; details: Human mastadenovirus D, 1477, HCE
[3] = system: Human adenovirus D37; assay: Inhibition of 35S-labeled Human adenovirus 37 1477 virion binding to human HCE cells at 0.1:9.9 compound to PDA ratio formulation prepared by probe sonication method after 1 hr by scintillation counting; details: Human mastadenovirus D, 1477, HCE
[4] = system: Human adenovirus D37; assay: Inhibition of 35S-labeled Human adenovirus 37 1477 virion binding to human HCE cells at 0.5:9.5 compound to PDA ratio formulation prepared by probe sonication method after 1 hr by scintillation counting; details: Human mastadenovirus D, 1477, HCE
[5] = system: Human adenovirus D37; assay: Inhibition of 35S-labeled Human adenovirus 37 1477 virion binding to human HCE cells at 2:8 compound to PDA ratio formulation prepared by extrusion method after 1 hr by scintillation counting; details: Human mastadenovirus D, 1477, HCE
[6] = system: Human adenovirus D37; assay: Antiviral activity against Human adenovirus 37 1477 in human HCE cells assessed as inhibition of viral infection to host cells after 44 hrs by immunofluorescence microscopic analysis; details: Human mastadenovirus D, 1477, HCE
[7] = system: Human adenovirus D37; assay: Induction of 35S-labeled Human adenovirus 37 1477 aggregation by liquid scintillation counting
[8] = system: Human adenovirus D37; assay: Induction of Human adenovirus 37 1477 aggregation by negative staining transmission electron microscopy

IC50 [1]: 21 µM
SMILES: CCCCCCCCCCCCCCCCCCCCCCCC(=O)NCCOCCOCCOCCOCCOCCC(=O)NCCCCCO[C@]1(C(=O)O)C[C@H](O)[C@@H](NC(C)=O)[C@H]([C@H](O)[C@H](O)CO)O1

IC50 [1]: > 50 µM
SMILES: CCCCCCCCCCCCCCCCCC(=O)NCCOCCOCCOCCOCCOCCC(=O)NCCCCCO[C@]1(C(=O)O)C[C@H](O)[C@@H](NC(C)=O)[C@H]([C@H](O)[C@H](O)CO)O1

IC50 [1]: 7 µM
SMILES: CCCCCCCCCCCCC#CC#CCCCCCCCCC(=O)NCCOCCOCCOCCOCCOCCOCCOCCOCCOCCOCCOCCOCCC(=O)NCCCCCO[C@]1(C(=O)O)C[C@H](O)[C@@H](NC(C)=O)[C@H]([C@H](O)[C@H](O)CO)O1

IC50 [1]: > 50 µM
SMILES: CCCCCCCCCCCCC#CC#CCCCCCCCCC(=O)NCCOCCOCCOCCC(=O)NCCCCCO[C@]1(C(=O)O)C[C@H](O)[C@@H](NC(C)=O)[C@H]([C@H](O)[C@H](O)CO)O1

IC50 [2]: 0.9 µM
IC50 [3]: > 5 µM
IC50 [4]: < 25 µM
IC50 [5]: 26 µM
IC50 [1]: 4 µM
SMILES: CCCCCCCCCCCCC#CC#CCCCCCCCCC(=O)NCCOCCOCCOCCOCCOCCC(=O)NCCCCCO[C@]1(C(=O)O)C[C@H](O)[C@@H](NC(C)=O)[C@H]([C@H](O)[C@H](O)CO)O1
IC50 [6]: 0.7 µM
Activity [7]: Active
Activity [8]: Active
